# Laboratory results published in patent publication US20060003950A1, “Method of treating prostatic diseases using a combination of vitamin D analogues and other agents” (priority 2004, published 2006).
# Key:
# vitamin D receptor (VDR) = target: T1, vitamin D receptor (VDR) (Homo sapiens, UniProt P11473); experiment: Vitamin D-inducible growth hormone reporter production in transfected COS-1 cells
# T1 sequence (P11473 1-427): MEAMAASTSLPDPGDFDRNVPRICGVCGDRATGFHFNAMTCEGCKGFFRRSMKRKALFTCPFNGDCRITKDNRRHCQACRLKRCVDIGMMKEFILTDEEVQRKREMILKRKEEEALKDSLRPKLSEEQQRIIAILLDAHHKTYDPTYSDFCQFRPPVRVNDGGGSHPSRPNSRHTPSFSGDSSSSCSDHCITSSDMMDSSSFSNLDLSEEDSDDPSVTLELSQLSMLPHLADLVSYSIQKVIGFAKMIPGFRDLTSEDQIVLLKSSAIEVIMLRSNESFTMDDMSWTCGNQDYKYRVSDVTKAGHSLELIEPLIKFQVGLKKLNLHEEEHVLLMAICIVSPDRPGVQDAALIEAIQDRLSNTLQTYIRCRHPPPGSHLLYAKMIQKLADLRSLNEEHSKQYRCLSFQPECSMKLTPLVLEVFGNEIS
# Procedure: Cells in culture were co-transfected into Green monkey kidney, COS-1 cells with these two plasmids. One plasmid contained the gene for Growth Hormone (GH) under the control of the vitamin D responsive element (VDRE) and the other plasmid contained the structural gene for the vitamin D receptor (VDR). These transfected cultures were incubated with 1α,24-(OH)2D2 or 1α,25-(OH)2D3, and the production of growth hormone was measured.
# prostate VDR = target: T2, prostate VDR (Homo sapiens, UniProt P11473); experiment: VDR binding in soluble extract of prostate-derived cell lines, competition with 3H-1α,25-(OH)2D3; settings: 0.01-100 nM against 1 nM 3H-1α,25-(OH)2D3, 16-20 hr at 4° C.
# T2 construct: endogenous in cells
# T2 sequence (P11473 1-427): T1 sequence (P11473 1-427)
# Procedure: Prostate-derived cell lines are cultured to near confluence, washed and harvested by scraping. Cells are washed by centrifugation, and the cell pellet resuspended in a buffered salt solution containing protease inhibitors. The cells are disrupted by sonication while cooling on ice. The supernatant obtained from centrifuging the disrupted cells at 207,000×g for 35 min at 4° C. is assayed for binding. […] Bound and free hormones are separated with hydroxylapatite using standard procedures. Specific binding is calculated by subtracting nonspecific binding obtained in the presence of a 250-fold excess of nonradioactive 1α,25-(OH)2D3 from the total binding measured.
# [1] = test system: Patients with advanced androgen-independent prostate cancer; experiment: Open-labeled clinical study of oral 1α,24-(OH)2D2; assay type: in vivo; settings: daily oral, first phase
# Excerpt: On admission to the study, patients begin a course of therapy with oral 1α,24-(OH)2D2 lasting 26 weeks, while discontinuing any previous use of calcium supplements, vitamin D supplements, and vitamin D hormone replacement therapies. During treatment, the patients are monitored at regular intervals for: (1) hypercalcemia, hyperphosphatemia, hypercalciuria, hyperphosphaturia and other toxicity; (2) evidence of changes in the progression of metastatic disease; and (3) compliance with the prescribed test drug dosage.
# The study is conducted in two phases. During the first phase, the maximal tolerated dosage (MTD) of daily oral 1α,24-(OH)2D2 is determined by administering progressively higher dosages to successive groups of patients. All doses are administered in the morning before breakfast. […] Subsequent groups of patients are treated with 50.0, 75.0 and 100.0 μg/day.
# During the second phase, patients are treated with 1α,24-(OH)2D2 for 24 months at 0.5 and 1.0 times the MTD.
# LNCaP [2] = experiment: Stimulation of prostate cell differentiation (PSA), LNCaP; assay type: cell-based, human; settings: 10^−11 M to 10^−7 M, 6-7 days
# Procedure: Using the techniques of Skowronski et al., 132 Endocrinology (1993) 1952-1960 and 136 Endocrinology (1995) 20-26, both of which are incorporated herein by reference, cells of the cell line, LNCaP, which is derived from a human metastatic prostate adenocarcinoma and known to express PSA, are seeded in six-well tissue culture plates at a density of about 50,000 cells/plate. After the cells have attached and stabilized, about 2-3 days, the medium is replenished with medium containing vehicle or the active vitamin D analogue, 1α,24-(OH)2D2, at concentrations from 10^−11 M to 10^−7 M. After 6-7 days, the medium is removed and stored at −20° C. for prostate specific antigen (PSA) analysis.
# The cells from parallel cultures are rinsed, precipitated, and the amount of DNA determined by standard procedures. PSA is measured by standard known methods.
# PC-3 = experiment: Inhibition of prostate cell proliferation (DNA amount), PC-3; assay type: cell-based, human; settings: PC-3, 10^−11 M to 10^−7 M, 6-7 days
# Procedure: (§1) The cell lines, LNCaP and PC-3, which are derived from human prostate adenocarcinoma, are seeded in six-well tissue culture plates at a density of about 50,000 cells/plate. After the cells have attached and stabilized, about 2-3 days, the medium is replenished with medium containing vehicle or the active vitamin D analogue 1α,24-(OH)2D2, at concentrations from 10^−11 M to 10^−7 M. Medium containing test analogue or vehicle is replaced every three days. After 6-7 days, the medium is removed, the cells are rinsed, precipitated with cold 5% trichloroacetic acid, and washed with cold ethanol. The cells are solubilized with 0.2 N sodium hydroxide, and the amount of DNA determined by standard procedures.
# LNCaP [3] = experiment: Inhibition of prostate cell proliferation (DNA amount), LNCaP; assay type: cell-based, human; settings: 10^−11 M to 10^−7 M, 6-7 days
# Procedure: as §1
smiles,measurement,setting,value
"C=C1/C(=C\C=C2/CCC[C@]3(C)[C@@H]([C@H](C)/C=C/[C@](C)(O)C(C)C)CC[C@@H]23)C[C@@H](O)C[C@@H]1O [1α,24(R)—(OH)2D2, 1α,24(R)-dihydroxy-vitamin D2]",Total GH Production*,vitamin D receptor (VDR); Molar Concentration 1 × 10^−7,1300 ng/mL
same,Total GH Production*,vitamin D receptor (VDR); Molar Concentration 1 × 10^−8,1100 ng/mL
same,Total GH Production*,vitamin D receptor (VDR); Molar Concentration 1 × 10^−9,80 ng/mL
"C=C1/C(=C\C=C2/CCC[C@]3(C)[C@@H]([C@H](C)/C=C/[C@@](C)(O)C(C)C)CC[C@@H]23)C[C@@H](O)C[C@@H]1O [1α,24(S)—(OH)2D2, 1α,24(S)-dihydroxyvitamin D2]",Total GH Production*,vitamin D receptor (VDR); Molar Concentration 5 × 10^−8,1182 ng/mL
same,Total GH Production*,vitamin D receptor (VDR); Molar Concentration 5 × 10^−9,1350 ng/mL
same,Total GH Production*,vitamin D receptor (VDR); Molar Concentration 5 × 10^−10,425 ng/mL
"C=C1/C(=C\C=C2/CCC[C@]3(C)[C@@H]([C@H](C)/C=C/C(C)(O)C(C)C)CC[C@@H]23)C[C@H](O)C[C@H]1O (stereo partly drawn) [1α,24-(OH)2D2, 1α,24-dihydroxyvitamin D2]",affinity for prostate VDR,prostate VDR,strong affinity
same,"MTD relative to level achievable with 1α,25-(OH)2D3",[1],10- to 40 fold
same,maximal tolerated dosage (MTD),[1],above 20.0 μg/day
same,"PSA versus control cultures, mass of PSA/cell",LNCaP [2],significantly more PSA than control cultures
same,cell number versus control cultures,PC-3,significantly fewer cells than the control cultures
same,cell number versus control cultures,LNCaP [3],significantly fewer cells than the control cultures
"C=C1CC[C@H](O)C/C1=C/C=C1\CCC[C@]2(C)[C@@H]([C@H](C)CCCC(C)(C)O)CC[C@@H]12 [25-OH-D3, reference compound]",Total GH Production*,vitamin D receptor (VDR); Molar Concentration 1 × 10^−5,775 ng/mL
same,Total GH Production*,vitamin D receptor (VDR); Molar Concentration 1 × 10^−6,1100 ng/mL
same,Total GH Production*,vitamin D receptor (VDR); Molar Concentration 1 × 10^−7,245 ng/mL
